Values quoted from earlier work in US6306425A, “Injectable naltrexone microsphere compositions and their use in reducing consumption of heroin and alcohol” (Southern Research Institute, priority 2000, dated 2001).

In the case of `O=C1CC[C@@]2(O)[C@H]3Cc4ccc(O)c5c4[C@@]2(CCN3CC2CC2)[C@H]1O5` [naltrexone], the “Control of amount of alcohol consumed and number of binges” value (alcoholics) is given as “serves to enhance the control of the alcoholic in the amount of alcohol consumed and the number of binges”, the Safety (administered levels in excess of those of the subject compositions) is given as “found to be safe” and the Hepatotoxicity (high dosages) is given as “some reports of hepatotoxicity”. For the same compound, the “Population with adverse reactions” value (oral naltrexone) was “about 10%”.
